Results: patent publication US12617752B2, “Rapidly metabolized lipid compound” (Beijing Jitai Life Sciences Ltd, priority 2023, dated 2026)

Experiments:
[1] = Particle size and PDI of lipid nanoparticles by dynamic light scattering; format: physicochemical; conditions: lipid nanoparticles with luciferase mRNA; ionizable lipid/cholesterol/DSPC/DMG-PEG2000 50/38.5/10/1.5 mol%
Protocol: (§1) Lipid nanoparticles were prepared by (1) dissolving and mixing ionizable lipid compounds, cholesterol, phospholipids and polyethylene glycolated lipids in ethanol at (molar percentages) 50%, 38.5%, 10% and 1.5%, respectively; (2) dissolving the mRNA active ingredient in 25 mM sodium acetate solution (pH=4.5); (3) using an automated high-throughput microfluidic system to mix the organic phase containing the lipid mixture and the aqueous phase containing the mRNA component in the flow ratio range of 1:1 to 1:4 at a mixing speed of 10 mL/min to 18 mL/min; (4) the prepared lipid nanoparticles (N/P ratio=6) were diluted with phosphate buffer solution and the nanoparticle solutions were ultrafiltered to the original preparation volume using ultrafiltration tubes (purchased from Millipore) with a cut-off molecular weight of 30 kDa; and (5) the obtained nanoparticles were filtered through a sterile 0.2 μm filter membrane and then stored in a sealed glass vial at low temperature.
(§2) The particle size and particle size dispersity index (PDI) of the prepared lipid nanoparticles were measured using a Zetasizer Pro (purchased from Malvern Instruments Ltd) and a DynaPro NanoStar (purchased from Wyatt) dynamic light scattering instrument. The degree of RNA encapsulation by lipid nanoparticles was characterized by the Encapsulation Efficiency %, which reflects the degree of binding of lipid nanoparticles to RNA fragments. This parameter was measured by the method of Quant-it™ RiboGreen RNA Assay (purchased from Invitrogen). Lipid nanoparticle samples were diluted in TE buffer (10 mM Tris-HCl, 1 mM EDTA, pH=7.5). A portion of the sample solution was removed, to which 0.5% Triton (Triton X-100) was added, and then allowed to stand at 37° C. for 30 minutes. Immediately after the addition of RIBOGREEN® reaction solution, the fluorescence values were read on a Varioskan LUX multifunctional microplate reader (purchased from Thermofisher) at 485 nm for absorption and 528 nm for emission to give the encapsulation efficiency values.

[2] = tested on: C57BL/6 mice; assay: In vivo delivery of luciferase mRNA lipid nanoparticles in mice (bioluminescence imaging); conditions: intravenous, single dose 0.5 mg/kg luciferase mRNA
Protocol: The delivery effect and safety of nanoparticles encapsulated with luciferase mRNA (Trilink, L-7202) in mice were evaluated. The test mice were SPF-grade C57BL/6 mice, female, 6-8 weeks old, weighing 18-22 g, and were purchased from SPF (Beijing) Biotechnology Co., Ltd. All animals were acclimatized for more than 7 days prior to the experiment, and had free access to food and water during the experiment. The conditions include alternating light and dark for 12/12 h, the indoor temperature of 20-26° C. and the humidity of 40-70%. The mice were randomly grouped. The lipid nanoparticles encapsulated with luciferase mRNA prepared above were injected into mice by intravenous administration at a single dose of 0.5 mg/kg mRNA, and the mice were subjected to in vivo bioluminescence assay using a Small Animal In Vivo Imaging System (IVIS LUMINA III, purchased from PerkinElmer) at 6 h after administration. The assay was performed as follows: D-luciferin solution was prepared in saline at a concentration of 15 mg/mL, and each mouse was given the substrate by intraperitoneal injection. At ten minutes after administration of the substrate, the mice were anesthetized in an anesthesia chamber with isoflurane at a concentration of 2.5%. The anesthetized mice were placed in IVIS for fluorescence imaging, and data acquisition and analysis were performed on the concentrated distribution area of fluorescence.
The in vivo delivery efficiency of lipid nanoparticle carriers was expressed as the mean values of fluorescence intensity and total photon count in different animals within the same subject group, as shown in Table 5-Table 11. Higher values of fluorescence intensity and total photon count indicate higher in vivo delivery efficiency of this mRNA fragment by lipid nanoparticles. The lipid nanoparticles containing the cationic lipids of the present disclosure have good in vivo delivery efficiency.

[3] = Encapsulation efficiency of lipid nanoparticles (Quant-it RiboGreen RNA Assay); format: physicochemical; conditions: lipid nanoparticles with luciferase mRNA
Protocol: as §1, §2

Particle size (nm) [1] | Particle-size distribution (PDI) [1] | Encapsulation efficiency (%) [3] | Structure (SMILES) | Total photon count in vivo at 6 hours after administration (Total Flux) [2]
109.87 nm | 0.030 | 87.72% | CCCCCCCCCCC(=O)OCC(C)(C)CCCCCN(CCCCO)CCCCCCCC(=O)OC(CCCCCCCCC)CCCCCCCCC [17b] | 1.74E+11
100.46 nm | 0.037 | 89.34% | CCCCCCCCCCOC(=O)CCCCCCCN(CCO)CCCCCC(C)(C)COC(=O)C(CCCCCCCC)CCCCCCCC [18b] | 3.91E+10
109.37 nm | 0.035 | 87.90% | CCCCCCCCCCCOC(=O)CCCCCN(CCO)CCCCCC(C)(C)CC(=O)OC(CCCCCCCC)CCCCCCCC [19a] | 4.73E+10
109.53 nm | 0.036 | 83.01% | CCCCCCCCCCOC(=O)CCCCCCCN(CCO)CCCCCC(C)(C)COC(=O)CC(CCCCCCC)CCCCCCC [19b] | 6.13E+10
107.83 nm | 0.032 | 87.69% | CCCCCCCCCCOC(=O)CCCCCCCN(CCO)CCCCCC(C)(C)COC(=O)CCC(CCCCCC)CCCCCC [20b] | 4.82E+10
110.00 nm | 0.016 | 88.37% | CCCCCCCCC(CCCCCCCC)OC(=O)C(C)(C)CCCCCCN(CCO)CCCCCC(=O)OCCCCCCCCCC(C)C [21a] | 8.84E+10
94.58 nm | 0.051 | 92.37% | CCCCCCCCCCC(=O)OCC1(CCCCCN(CCO)CCCCCCCC(=O)OC(CCCCCCCCC)CCCCCCCCC)CC1 [21b] | 4.95E+10
99.48 nm | 0.010 | 97.25% | CCCCCCCCCCCOC(=O)CCCCCN(CCO)CCCCCCC1(C(=O)OC(CCCCCCCC)CCCCCCCC)CCCC1 [22a] | 1.74E+10
99.25 nm | 0.011 | 96.30% | CCCCCCCCCCOC(=O)CCCCCN(CCO)CCCCCCC(C)(C)C(=O)OC(CCCCCCC)CCCCCCC [23a] | 9.84E+10
115.70 nm | 0.031 | 93.14% | CCCCCCCCCC(=O)OCC1(CCCCCN(CCO)CCCCCCCC(=O)OCCC(CCCCCC)CCCCCC)CC1 [23b] | 3.92E+10
109.53 nm | 0.052 | 88.89% | CCCCCCCCCCCCOC(=O)CCCCCN(CCO)CCCCCCC(C)(C)C(=O)OC(CCCCCCCCC)CCCCCCCCC [24a] | 3.07E+10

The remaining lines, values behind:

Structure (SMILES) | Particle size (nm) [1] | Particle-size distribution (PDI) [1] | Encapsulation efficiency (%) [3] | Total photon count in vivo at 6 hours after administration (Total Flux) [2]
CCCCCCCCCC(=O)OCC(C)(C)CCCCCN(CCCO)CCCCCCCC(=O)OC(CCCCCCCC)CCCCCCCC [2b] | 104.61 nm | 0.013 | 80.17% | 8.31E+10
CCCCCCCCCCCOC(=O)CCCCCN(CCO)CCCCCCC(C)(C)C(=O)OC(CCCCCCCC)CCCCCCCC [3a] | 89.72 nm | 0.021 | 94.23% | 1.03E+11
CCCCCCCCCOC(=O)CCCCCCCN(CCO)CCCCCCC1(C(=O)OC(CCCCCCCC)CCCCCCCC)CC1 [6a] | 90.67 nm | 0.018 | 87.22% | 2.88E+10
CCCCCCCCCC(=O)OCCCCCCCN(CCO)CCCCCCC(C)(C)C(=O)OC(CCCCCCCC)CCCCCCCC [6b] | 99.55 nm | 0.029 | 80.01% | 7.42E+10
CCCCCCCCCOC(=O)CCCCCCCN(CCO)CCCCCCC(C)(C)C(=O)OCCC(CCCCCC)CCCCCC [7a] | – | – | – | 5.26E+10
CCCCCCCCC(CCCCCCCC)OC(=O)C(C)(C)CCCCCCN(CCO)CCCCCCCOC(=O)CCCC(CCCCC)CCCCC [7b] | 101.67 nm | 0.030 | 88.68% | 2.00E+10
CCCCCCCCCOC(=O)CCCCCCCN(CCO)CCCCCC(C)(C)CC(=O)OC(CCCCCCCC)CCCCCCCC [9a] | 103.03 nm | 0.031 | 89.64% | 2.06E+10
CCCCCCCCCOC(=O)CCCCCCCN(CCO)CCCC(C)(C)CCC(=O)OC(CCCCCCCC)CCCCCCCC [10a] | 131.09 nm | 0.032 | 89.69% | 7.08E+10
CCCCCCCCCCCOC(=O)CCCCCN(CCCO)CCCCCCC(C)(C)C(=O)OC(CCCCCCCC)CCCCCCCC [11a] | 98.01 nm | 0.021 | 89.36% | 2.05E+10
CCCCCCCCCCCOC(=O)CCCCCN(CCCCO)CCCCCCC(C)(C)C(=O)OC(CCCCCCCC)CCCCCCCC [12a] | 104.85 nm | 0.021 | 85.24% | 1.39E+10
CCCCCCCCCCCOC(=O)CCCCCN(CCO)CCCCCCC1(C(=O)OC(CCCCCCCC)CCCCCCCC)CC1 [13a] | 110.20 nm | 0.018 | 92.96% | 5.01E+10
CCCCCCCCCCCOC(=O)CCCCCN(CCO)CCCCCCC(C)(C)C(=O)OCC(CCCCCCC)CCCCCCC [14a] | 90.99 nm | 0.012 | 91.67% | 1.09E+11
CCCCCCCCCC(=O)OCC1(CCCCCN(CCO)CCCCCCCC(=O)OC(CCCCCCCC)CCCCCCCC)CC1 [14b] | 99.73 nm | 0.013 | 83.54% | 1.05E+11
CCCCCCCCCCCOC(=O)CCCCCN(CCO)CCCCCCC(C)(C)C(=O)OCCC(CCCCCC)CCCCCC [15a] | 95.94 nm | 0.021 | 90.77% | 4.15E+10
CCCCCCCCCC(=O)OCC1(CCCCCN(CCCCO)CCCCCCCC(=O)OC(CCCCCCCC)CCCCCCCC)CC1 [15b] | 120.27 nm | 0.015 | 69.69% | 8.22E+10
CCCCCCCCCCC(=O)OCC(C)(C)CCCCCN(CCO)CCCCCCCC(=O)OC(CCCCCCCCC)CCCCCCCCC [16b] | 101.90 nm | 0.028 | 89.09% | 1.28E+11
